Results taken from PMC9898036, “VIP152 is a selective CDK9 inhibitor with pre-clinical in vitro and in vivo efficacy in chronic lymphocytic leukemia” (Leukemia, 2022).

Legend:
Test in all cases: DiscoverX KINOMEscan kinase profiling (468 assays)
Type in all cases: binding
human kinome [1] = biological target: human kinome (Homo sapiens, UniProt O00444); conditions: read-out: Percent Control
Outline: (§1)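 VIP152 was run in DMSO, alongside a DMSO control. Readout was qPCR of DNA-tagged kinase still bound to bead-immobilized biotinylated kinase ligands after compound competition.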

human kinome [2] = biological target: human kinome (Homo sapiens, UniProt O00506); conditions: kinase YSK1 (Entrez STK25); compound concentration 1000 nM; read-out: Percent Control
Outline: as §1

human kinome [3] = biological target: human kinome (Homo sapiens, UniProt O14730); conditions: kinase RIOK3 (Entrez RIOK3); compound concentration 1000 nM; read-out: Percent Control
Outline: as §1

human kinome [4] = biological target: human kinome (Homo sapiens, UniProt O14920); conditions: IKK-beta (Entrez IKBKB); 100 nM; read-out: Percent Control
Outline: as §1

human kinome [5] = biological target: human kinome (Homo sapiens, UniProt O15146); conditions: MUSK; 100 nM; read-out: Percent Control
Outline: as §1

human kinome [6] = biological target: human kinome (Homo sapiens, UniProt O60674); conditions: JAK2(JH1domain-catalytic); 100 nM; read-out: Percent Control
Outline: as §1

human kinome [7] = biological target: human kinome (Homo sapiens, UniProt O75460); conditions: ERN1; 100 nM; read-out: Percent Control
Outline: as §1

human kinome [8] = biological target: human kinome (Homo sapiens, UniProt P10721, D816V); conditions: KIT(D816V); 100 nM; read-out: Percent Control
Outline: as §1

human kinome [9] = biological target: human kinome (Homo sapiens, UniProt P22607, G697C); conditions: FGFR3(G697C); 100 nM; read-out: Percent Control
Outline: as §1

human kinome [10] = biological target: human kinome (Homo sapiens, UniProt P29376); conditions: LTK; 100 nM; read-out: Percent Control
Outline: as §1

human kinome [11] = biological target: human kinome (Homo sapiens, UniProt P30291); conditions: kinase WEE1 (Entrez WEE1); compound concentration 1000 nM; read-out: Percent Control
Outline: as §1

human kinome [12] = biological target: human kinome (Homo sapiens, UniProt P36888, D835Y); conditions: FLT3(D835Y); 100 nM; read-out: Percent Control
Outline: as §1

human kinome [13] = biological target: human kinome (Homo sapiens, UniProt P42684); conditions: ABL2; 100 nM; read-out: Percent Control
Outline: as §1

human kinome [14] = biological target: human kinome (Homo sapiens, UniProt P45984); conditions: JNK2 (Entrez MAPK9); 100 nM; read-out: Percent Control
Outline: as §1

human kinome [15] = biological target: human kinome (Homo sapiens, UniProt P49137); conditions: MAPKAPK2; 100 nM; read-out: Percent Control
Outline: as §1

human kinome [16] = biological target: human kinome (Homo sapiens, UniProt P53671); conditions: LIMK2; 100 nM; read-out: Percent Control
Outline: as §1

human kinome [17] = biological target: human kinome (Homo sapiens, UniProt Q02763); conditions: kinase TIE2 (Entrez TEK); compound concentration 1000 nM; read-out: Percent Control
Outline: as §1

human kinome [18] = biological target: human kinome (Homo sapiens, UniProt Q04912); conditions: MST1R; 100 nM; read-out: Percent Control
Outline: as §1

human kinome [19] = biological target: human kinome (Homo sapiens, UniProt Q09013); conditions: DMPK; 100 nM; read-out: Percent Control
Outline: as §1

human kinome [20] = biological target: human kinome (Homo sapiens, UniProt Q13554); conditions: CAMK2B; 100 nM; read-out: Percent Control
Outline: as §1

human kinome [21] = biological target: human kinome (Homo sapiens, UniProt Q15746); conditions: read-out: Percent Control
Outline: as §1

human kinome [22] = biological target: human kinome (Homo sapiens, UniProt Q16659); conditions: ERK3 (Entrez MAPK6); 100 nM; read-out: Percent Control
Outline: as §1

human kinome [23] = biological target: human kinome (Homo sapiens, UniProt Q86Y07); conditions: kinase VRK2 (Entrez VRK2); compound concentration 1000 nM; read-out: Percent Control
Outline: as §1

human kinome [24] = biological target: human kinome (Homo sapiens, UniProt Q8IW41); conditions: MAPKAPK5; 100 nM; read-out: Percent Control
Outline: as §1

human kinome [25] = biological target: human kinome (Homo sapiens, UniProt Q8IWQ3); conditions: BRSK2; 100 nM; read-out: Percent Control
Outline: as §1

human kinome [26] = biological target: human kinome (Homo sapiens, UniProt Q8TD08); conditions: ERK8 (Entrez MAPK15); 100 nM; read-out: Percent Control
Outline: as §1

human kinome [27] = biological target: human kinome (Homo sapiens, UniProt Q96D53); conditions: ADCK4; 100 nM; read-out: Percent Control
Outline: as §1

human kinome [28] = biological target: human kinome (Homo sapiens, UniProt Q96L34); conditions: MARK4; 100 nM; read-out: Percent Control
Outline: as §1

human kinome [29] = biological target: human kinome (Homo sapiens, UniProt Q99755); conditions: read-out: Percent Control
Outline: as §1

human kinome [30] = biological target: human kinome (Homo sapiens, UniProt Q9UM73); conditions: ALK; 100 nM; read-out: Percent Control
Outline: as §1

human kinome [31] = biological target: human kinome (Homo sapiens, UniProt Q9UPE1); conditions: kinase SRPK3 (Entrez SRPK3); compound concentration 1000 nM; read-out: Percent Control
Outline: as §1

human kinome (Homo sapiens, UniProt Q99755), sequence (Q99755 whole entry): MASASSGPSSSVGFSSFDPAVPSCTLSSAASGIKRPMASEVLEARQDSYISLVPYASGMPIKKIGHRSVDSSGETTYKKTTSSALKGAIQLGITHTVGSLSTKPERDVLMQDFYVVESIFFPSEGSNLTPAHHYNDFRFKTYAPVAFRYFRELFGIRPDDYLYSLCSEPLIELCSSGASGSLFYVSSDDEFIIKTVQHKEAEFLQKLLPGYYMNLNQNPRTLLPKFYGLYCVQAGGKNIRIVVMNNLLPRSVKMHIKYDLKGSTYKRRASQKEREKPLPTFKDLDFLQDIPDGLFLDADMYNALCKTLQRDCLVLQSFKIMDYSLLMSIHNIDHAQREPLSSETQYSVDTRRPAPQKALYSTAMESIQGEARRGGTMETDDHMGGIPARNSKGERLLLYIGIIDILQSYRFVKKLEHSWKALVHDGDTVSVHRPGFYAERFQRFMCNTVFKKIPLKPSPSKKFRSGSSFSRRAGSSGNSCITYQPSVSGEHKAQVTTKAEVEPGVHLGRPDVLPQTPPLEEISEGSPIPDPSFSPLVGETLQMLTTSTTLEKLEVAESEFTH
human kinome (Homo sapiens, UniProt Q15746), sequence (Q15746 whole entry): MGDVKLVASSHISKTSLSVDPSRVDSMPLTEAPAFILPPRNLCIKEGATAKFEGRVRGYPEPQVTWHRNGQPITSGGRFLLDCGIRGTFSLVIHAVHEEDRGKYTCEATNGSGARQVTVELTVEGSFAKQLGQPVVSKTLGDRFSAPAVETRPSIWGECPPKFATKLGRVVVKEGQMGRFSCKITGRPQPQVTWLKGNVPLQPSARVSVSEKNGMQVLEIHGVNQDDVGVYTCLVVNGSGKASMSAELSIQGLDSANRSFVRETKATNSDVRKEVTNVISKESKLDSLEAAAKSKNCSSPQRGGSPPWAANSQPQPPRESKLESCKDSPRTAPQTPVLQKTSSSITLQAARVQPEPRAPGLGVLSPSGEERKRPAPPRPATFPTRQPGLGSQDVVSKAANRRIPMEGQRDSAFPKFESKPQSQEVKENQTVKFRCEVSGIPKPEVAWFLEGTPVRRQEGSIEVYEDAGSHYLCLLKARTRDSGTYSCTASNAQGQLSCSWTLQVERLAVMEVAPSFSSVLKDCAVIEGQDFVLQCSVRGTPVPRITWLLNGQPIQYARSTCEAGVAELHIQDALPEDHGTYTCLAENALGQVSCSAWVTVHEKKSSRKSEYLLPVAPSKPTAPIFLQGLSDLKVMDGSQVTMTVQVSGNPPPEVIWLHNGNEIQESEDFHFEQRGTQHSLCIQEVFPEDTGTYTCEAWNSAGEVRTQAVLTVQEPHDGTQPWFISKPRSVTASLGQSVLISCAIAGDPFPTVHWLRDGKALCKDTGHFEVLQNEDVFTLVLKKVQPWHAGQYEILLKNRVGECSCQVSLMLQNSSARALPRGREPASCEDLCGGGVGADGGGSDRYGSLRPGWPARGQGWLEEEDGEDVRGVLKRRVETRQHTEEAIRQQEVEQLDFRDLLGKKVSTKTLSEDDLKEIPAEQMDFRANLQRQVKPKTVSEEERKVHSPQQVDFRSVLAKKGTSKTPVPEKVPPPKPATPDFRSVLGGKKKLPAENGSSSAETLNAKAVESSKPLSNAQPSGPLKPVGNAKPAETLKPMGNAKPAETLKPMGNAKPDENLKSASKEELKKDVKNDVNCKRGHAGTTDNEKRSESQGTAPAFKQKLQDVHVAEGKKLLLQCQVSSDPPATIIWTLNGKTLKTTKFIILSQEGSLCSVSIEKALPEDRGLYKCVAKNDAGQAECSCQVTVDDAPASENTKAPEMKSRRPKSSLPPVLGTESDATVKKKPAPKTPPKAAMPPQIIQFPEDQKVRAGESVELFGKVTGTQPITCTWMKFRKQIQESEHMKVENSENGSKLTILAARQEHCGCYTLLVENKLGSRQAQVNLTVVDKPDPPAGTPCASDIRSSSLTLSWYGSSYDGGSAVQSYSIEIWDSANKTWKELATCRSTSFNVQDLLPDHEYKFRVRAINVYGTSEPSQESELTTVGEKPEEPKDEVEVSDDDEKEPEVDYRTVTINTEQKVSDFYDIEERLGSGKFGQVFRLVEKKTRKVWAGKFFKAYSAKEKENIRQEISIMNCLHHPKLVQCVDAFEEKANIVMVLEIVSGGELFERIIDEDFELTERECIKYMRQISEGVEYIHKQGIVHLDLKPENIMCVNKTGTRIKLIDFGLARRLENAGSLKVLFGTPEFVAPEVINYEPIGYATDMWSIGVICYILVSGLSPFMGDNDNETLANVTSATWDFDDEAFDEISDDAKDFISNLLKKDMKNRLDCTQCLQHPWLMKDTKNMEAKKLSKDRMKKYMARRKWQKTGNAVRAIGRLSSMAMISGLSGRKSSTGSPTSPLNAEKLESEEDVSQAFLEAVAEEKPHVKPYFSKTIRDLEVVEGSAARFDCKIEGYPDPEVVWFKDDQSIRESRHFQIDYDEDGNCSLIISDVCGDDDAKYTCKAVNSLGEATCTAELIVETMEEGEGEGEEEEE
human kinome (Homo sapiens, UniProt O00444), sequence (O00444 whole entry): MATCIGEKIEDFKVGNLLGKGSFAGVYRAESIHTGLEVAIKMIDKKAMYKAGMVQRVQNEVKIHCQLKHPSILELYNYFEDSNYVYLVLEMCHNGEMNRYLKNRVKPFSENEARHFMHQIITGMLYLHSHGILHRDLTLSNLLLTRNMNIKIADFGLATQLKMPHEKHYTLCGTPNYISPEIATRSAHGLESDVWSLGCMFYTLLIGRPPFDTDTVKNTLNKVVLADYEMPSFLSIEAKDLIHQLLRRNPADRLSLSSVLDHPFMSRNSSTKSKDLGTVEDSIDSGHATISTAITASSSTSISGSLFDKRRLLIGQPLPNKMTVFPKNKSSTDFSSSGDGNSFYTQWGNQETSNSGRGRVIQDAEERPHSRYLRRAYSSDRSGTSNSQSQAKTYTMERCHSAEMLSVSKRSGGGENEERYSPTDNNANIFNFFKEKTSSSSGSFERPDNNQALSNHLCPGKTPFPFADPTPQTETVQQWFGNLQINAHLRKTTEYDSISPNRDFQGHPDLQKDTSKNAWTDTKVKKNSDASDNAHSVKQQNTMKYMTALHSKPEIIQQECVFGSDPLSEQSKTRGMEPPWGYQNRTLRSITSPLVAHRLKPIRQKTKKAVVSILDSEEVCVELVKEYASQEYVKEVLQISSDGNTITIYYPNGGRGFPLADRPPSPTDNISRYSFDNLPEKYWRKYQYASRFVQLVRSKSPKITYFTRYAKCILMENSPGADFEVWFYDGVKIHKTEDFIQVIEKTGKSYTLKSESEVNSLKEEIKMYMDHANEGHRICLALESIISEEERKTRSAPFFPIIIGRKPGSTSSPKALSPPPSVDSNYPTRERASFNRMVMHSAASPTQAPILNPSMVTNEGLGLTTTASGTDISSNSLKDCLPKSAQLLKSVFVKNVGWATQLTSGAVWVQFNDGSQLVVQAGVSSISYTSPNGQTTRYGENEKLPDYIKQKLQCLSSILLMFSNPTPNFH
human kinome (Homo sapiens, UniProt P29376), sequence (P29376 17-864): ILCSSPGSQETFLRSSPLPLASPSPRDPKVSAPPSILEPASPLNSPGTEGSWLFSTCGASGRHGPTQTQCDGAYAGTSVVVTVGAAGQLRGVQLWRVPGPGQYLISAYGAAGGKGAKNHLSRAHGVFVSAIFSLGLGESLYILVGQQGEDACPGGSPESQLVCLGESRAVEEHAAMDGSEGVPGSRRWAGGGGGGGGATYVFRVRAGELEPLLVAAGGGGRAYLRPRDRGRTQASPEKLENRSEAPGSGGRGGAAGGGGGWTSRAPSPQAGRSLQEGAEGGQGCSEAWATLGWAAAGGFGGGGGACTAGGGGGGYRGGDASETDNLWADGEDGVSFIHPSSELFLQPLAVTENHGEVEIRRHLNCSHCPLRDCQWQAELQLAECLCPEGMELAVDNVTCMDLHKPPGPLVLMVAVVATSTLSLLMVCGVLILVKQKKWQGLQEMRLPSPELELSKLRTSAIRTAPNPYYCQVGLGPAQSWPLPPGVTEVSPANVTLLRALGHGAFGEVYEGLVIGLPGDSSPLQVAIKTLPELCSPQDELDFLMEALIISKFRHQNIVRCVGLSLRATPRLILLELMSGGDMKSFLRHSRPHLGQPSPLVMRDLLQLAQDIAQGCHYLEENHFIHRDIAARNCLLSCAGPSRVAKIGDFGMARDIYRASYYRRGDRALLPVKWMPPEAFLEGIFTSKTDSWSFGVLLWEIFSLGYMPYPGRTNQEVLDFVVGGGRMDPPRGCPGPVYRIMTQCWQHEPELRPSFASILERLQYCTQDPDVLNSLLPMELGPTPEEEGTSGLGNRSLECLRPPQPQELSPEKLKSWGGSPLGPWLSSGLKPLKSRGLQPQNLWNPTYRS
human kinome (Homo sapiens, UniProt Q86Y07), sequence (Q86Y07 whole entry): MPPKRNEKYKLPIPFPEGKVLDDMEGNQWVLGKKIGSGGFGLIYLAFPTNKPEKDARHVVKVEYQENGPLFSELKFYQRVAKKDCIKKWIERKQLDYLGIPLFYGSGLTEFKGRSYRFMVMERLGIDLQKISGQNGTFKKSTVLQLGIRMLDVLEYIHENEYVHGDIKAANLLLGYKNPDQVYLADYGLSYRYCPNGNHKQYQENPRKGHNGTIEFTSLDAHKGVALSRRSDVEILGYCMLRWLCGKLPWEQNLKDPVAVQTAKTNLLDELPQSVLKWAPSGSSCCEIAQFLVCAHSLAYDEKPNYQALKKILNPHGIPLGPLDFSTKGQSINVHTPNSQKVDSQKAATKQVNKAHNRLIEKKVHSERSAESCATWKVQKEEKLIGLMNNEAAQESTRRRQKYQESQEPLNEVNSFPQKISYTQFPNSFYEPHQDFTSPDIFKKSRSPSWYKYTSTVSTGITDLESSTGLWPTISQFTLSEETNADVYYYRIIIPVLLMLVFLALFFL

## COc1cc(F)ccc1-c1cc(Nc2cc(CS(C)(=N)=O)ccn2)ncc1F (stereo not shown) [VIP152]
Human kinome [1]; PLK4, 100 nM
  remaining binding at 0.1 µM: 100%
Human kinome [1]; kinase PLK4 (Entrez PLK4), compound concentration 1000 nM
  remaining binding at 1 µM: 79%
Human kinome [2]
  remaining binding at 1 µM: 100%
Human kinome [3]
  remaining binding at 1 µM: 79%
Human kinome [4]
  remaining binding at 0.1 µM: 100%
Human kinome [5]
  remaining binding at 0.1 µM: 99%
Human kinome [6]
  remaining binding at 0.1 µM: 100%
Human kinome [7]
  remaining binding at 0.1 µM: 88%
Human kinome [8]
  remaining binding at 0.1 µM: 100%
Human kinome [9]
  remaining binding at 0.1 µM: 100%
Human kinome [10]
  remaining binding at 0.1 µM: 96%
Human kinome [11]
  remaining binding at 1 µM: 86%
Human kinome [12]
  remaining binding at 0.1 µM: 100%
Human kinome [13]
  remaining binding at 0.1 µM: 100%
Human kinome [14]
  remaining binding at 0.1 µM: 89%
Human kinome [15]
  remaining binding at 0.1 µM: 100%
Human kinome [16]
  remaining binding at 0.1 µM: 100%
Human kinome [17]
  remaining binding at 1 µM: 86%
Human kinome [18]
  remaining binding at 0.1 µM: 100%
Human kinome [19]
  remaining binding at 0.1 µM: 96%
Human kinome [20]
  remaining binding at 0.1 µM: 100%
Human kinome [21]; MYLK, 100 nM
  remaining binding at 0.1 µM: 95%
Human kinome [21]; kinase MYLK (Entrez MYLK), compound concentration 1000 nM
  remaining binding at 1 µM: 77%
Human kinome [22]
  remaining binding at 0.1 µM: 100%
Human kinome [23]
  remaining binding at 1 µM: 81%
Human kinome [24]
  remaining binding at 0.1 µM: 100%
Human kinome [25]
  remaining binding at 0.1 µM: 99%
Human kinome [26]
  remaining binding at 0.1 µM: 94%
Human kinome [27]
  remaining binding at 0.1 µM: 100%
Human kinome [28]
  remaining binding at 0.1 µM: 81%
Human kinome [29]; PIP5K1A, 100 nM
  remaining binding at 0.1 µM: 90%
Human kinome [29]; kinase PIP5K1A (Entrez PIP5K1A), compound concentration 1000 nM
  remaining binding at 1 µM: 18%
Human kinome [30]
  remaining binding at 0.1 µM: 100%
Human kinome [31]
  remaining binding at 1 µM: 68%
